Results taken from patent publication US10202361B2, “Pyridazinones as herbicides” (E I DU PONT DE NEMOURS AND COMPANY, priority 2014, dated 2019).

Legend:
Test in all cases: Test D pre-/postemergence controlled growth environment herbicide test
Assay type in all cases: in vivo
Details in all cases: scale 0 to 100
[1] = tested on: foxtail, green (green foxtail, Setaria viridis)
Excerpt: (§1) Seeds of plant species selected from bluegrass (annual bluegrass, Poa annua), blackgrass (Alopecurus myosuroides), canarygrass (Phalaris minor), chickweed (common chickweed, Stellaria media), galium (catchweed bedstraw, Galium aparine), downy bromegrass (Bromus tectorum), field poppy (Papaver rhoeas), field violet (Viola arvensis), foxtail, green (green foxtail, Setaria viridis), deadnettle (henbit deadnettle, Lamium amplexicaule), ryegrass, Italian (Italian ryegrass, Lolium multiflorum), kochia (Kochia scoparia), lambsquarters (Chenopodium album), oilseed rape (Brassica napus), pigweed (Amaranthus retroflexus), chamomile (scentless chamomile, Matricaria inodora), Russian thistle (Salsola kali), speedwell (bird's-eye speedwell, Veronica persica), barley, spring (spring barley, Hordeum vulgare), wheat, spring (spring wheat, Triticum aestivum), buckwheat, wild (wild buckwheat, Polygonum convolvulus), mustard, wild (wild mustard, Sinapis arvensis), oat, wild (wild oat, Avena fatua), radish, wild (wild radish, Raphanus raphanistrum), windgrass (Apera spica-venti), barley, winter (winter barley, Hordeum vulgare), and wheat, winter (winter wheat, Triticum aestivum) were planted into a silt loam soil and treated preemergence with test chemicals formulated in a non-phytotoxic solvent mixture which included a surfactant.
(§2) At the same time, these species were planted in pots containing Redi-Earth® planting medium (Scotts Company, 14111 Scottslawn Road, Marysville, Ohio 43041) comprising spaghnum peat moss, vermiculite, wetting agent and starter nutrients and treated with postemergence applications of the test chemicals formulated in the same manner. Plants ranged in height from 2 to 18 cm (1- to 4-leaf stage). Treated plants and controls were maintained in a controlled growth environment for 14 to 21 d after which time all species were compared to controls and visually evaluated. Plant response ratings, summarized in Table D, are based on a scale of 0 to 100 where 0 is no effect and 100 is complete control. A dash (-) response means no test result.

[2] = tested on: field poppy (Papaver rhoeas)
Excerpt: as §1, §2

[3] = tested on: radish, wild (wild radish, Raphanus raphanistrum)
Excerpt: as §1, §2

[4] = tested on: mustard, wild (wild mustard, Sinapis arvensis)
Excerpt: as §1, §2

[5] = tested on: pigweed (Amaranthus retroflexus)
Excerpt: as §1, §2

[6] = tested on: buckwheat, wild (wild buckwheat, Polygonum convolvulus)
Excerpt: as §1, §2

[7] = tested on: blackgrass (Alopecurus myosuroides)
Excerpt: as §1, §2

[8] = tested on: canarygrass (Phalaris minor)
Excerpt: as §1, §2

[9] = tested on: chickweed (common chickweed, Stellaria media)
Excerpt: as §1, §2

[10] = tested on: Russian thistle (Salsola kali)
Excerpt: as §1, §2

[11] = tested on: speedwell (bird's-eye speedwell, Veronica persica)
Excerpt: as §1, §2

SMILES: Cc1cc(=O)n(-c2ccc(C(F)(F)F)cc2)nc1Cc1ccnc(C(F)(F)F)c1 [Compound 2, 5-methyl-2-[4-(trifluoromethyl)phenyl]-6-[[2-(trifluoromethyl)-4-pyridinyl]methyl]-3(2H)-pyridazinone]
- Plant response rating ([1]; Postemergence, 31 g ai/ha): 0
- Plant response rating ([1]; Postemergence, 62 g ai/ha): 5
- Plant response rating ([1]; Postemergence, 125 g ai/ha): 40
- Plant response rating ([1]; Postemergence, 250 g ai/ha): 45
- Plant response rating ([1]; Postemergence, 500 g ai/ha): 75
- Plant response rating ([1]; Preemergence, 31 g ai/ha): 20
- Plant response rating ([1]; Preemergence, 125 g ai/ha): 85
- Plant response rating ([1]; Preemergence, 250 g ai/ha): 100
- Plant response rating ([1]; Preemergence, 500 g ai/ha): 100
- Plant response rating ([2]; Postemergence, 31 g ai/ha): 25
- Plant response rating ([2]; Postemergence, 62 g ai/ha): 75
- Plant response rating ([2]; Postemergence, 125 g ai/ha): 100
- Plant response rating ([2]; Postemergence, 250 g ai/ha): 80
- Plant response rating ([2]; Postemergence, 500 g ai/ha): 100
- Plant response rating ([2]; Preemergence, 31 g ai/ha): 100
- Plant response rating ([2]; Preemergence, 62 g ai/ha): 100
- Plant response rating ([2]; Preemergence, 125 g ai/ha): 100
- Plant response rating ([2]; Preemergence, 250 g ai/ha): 100
- Plant response rating ([2]; Preemergence, 500 g ai/ha): 100
- Plant response rating ([3]; Postemergence, 31 g ai/ha): 20
- Plant response rating ([3]; Postemergence, 62 g ai/ha): 20
- Plant response rating ([3]; Postemergence, 125 g ai/ha): 90
- Plant response rating ([3]; Postemergence, 250 g ai/ha): 100
- Plant response rating ([3]; Postemergence, 500 g ai/ha): 100
- Plant response rating ([3]; Preemergence, 31 g ai/ha): 100
- Plant response rating ([3]; Preemergence, 62 g ai/ha): 100
- Plant response rating ([3]; Preemergence, 125 g ai/ha): 100
- Plant response rating ([3]; Preemergence, 250 g ai/ha): 100
- Plant response rating ([3]; Preemergence, 500 g ai/ha): 100
- Plant response rating ([4]; Postemergence, 31 g ai/ha): 10
- Plant response rating ([4]; Postemergence, 62 g ai/ha): 70
- Plant response rating ([4]; Postemergence, 125 g ai/ha): 80
- Plant response rating ([4]; Postemergence, 250 g ai/ha): 100
- Plant response rating ([4]; Postemergence, 500 g ai/ha): 100
- Plant response rating ([4]; Preemergence, 31 g ai/ha): 0
- Plant response rating ([4]; Preemergence, 62 g ai/ha): 100
- Plant response rating ([4]; Preemergence, 125 g ai/ha): 100
- Plant response rating ([4]; Preemergence, 250 g ai/ha): 100
- Plant response rating ([4]; Preemergence, 500 g ai/ha): 100
- Plant response rating ([5]; Postemergence, 31 g ai/ha): 20
- Plant response rating ([5]; Postemergence, 62 g ai/ha): 20
- Plant response rating ([5]; Postemergence, 125 g ai/ha): 20
- Plant response rating ([5]; Postemergence, 250 g ai/ha): 30
- Plant response rating ([5]; Postemergence, 500 g ai/ha): 30
- Plant response rating ([5]; Preemergence, 31 g ai/ha): 30
- Plant response rating ([5]; Preemergence, 62 g ai/ha): 60
- Plant response rating ([5]; Preemergence, 125 g ai/ha): 70
- Plant response rating ([5]; Preemergence, 250 g ai/ha): 85
- Plant response rating ([5]; Preemergence, 500 g ai/ha): 100
- Plant response rating ([6]; Postemergence, 31 g ai/ha): 20
- Plant response rating ([6]; Postemergence, 62 g ai/ha): 30
- Plant response rating ([6]; Postemergence, 125 g ai/ha): 50
- Plant response rating ([6]; Postemergence, 250 g ai/ha): 70
- Plant response rating ([6]; Postemergence, 500 g ai/ha): 80
- Plant response rating ([6]; Preemergence, 31 g ai/ha): 0
- Plant response rating ([6]; Preemergence, 62 g ai/ha): 20
- Plant response rating ([6]; Preemergence, 125 g ai/ha): 25
- Plant response rating ([6]; Preemergence, 250 g ai/ha): 100
- Plant response rating ([6]; Preemergence, 500 g ai/ha): 100
- Plant response rating ([7]; Postemergence, 31 g ai/ha): 5
- Plant response rating ([7]; Postemergence, 62 g ai/ha): 15
- Plant response rating ([7]; Postemergence, 125 g ai/ha): 20
- Plant response rating ([7]; Postemergence, 250 g ai/ha): 30
- Plant response rating ([7]; Postemergence, 500 g ai/ha): 50
- Plant response rating ([7]; Preemergence, 31 g ai/ha): 5
- Plant response rating ([7]; Preemergence, 62 g ai/ha): 20
- Plant response rating ([7]; Preemergence, 125 g ai/ha): 60
- Plant response rating ([7]; Preemergence, 250 g ai/ha): 60
- Plant response rating ([7]; Preemergence, 500 g ai/ha): 80
- Plant response rating ([8]; Postemergence, 31 g ai/ha): 20
- Plant response rating ([8]; Postemergence, 62 g ai/ha): 20
- Plant response rating ([8]; Postemergence, 125 g ai/ha): 20
- Plant response rating ([8]; Postemergence, 250 g ai/ha): 20
- Plant response rating ([8]; Postemergence, 500 g ai/ha): 25
- Plant response rating ([8]; Preemergence, 31 g ai/ha): 0
- Plant response rating ([8]; Preemergence, 62 g ai/ha): 25
- Plant response rating ([8]; Preemergence, 125 g ai/ha): 40
- Plant response rating ([8]; Preemergence, 250 g ai/ha): 40
- Plant response rating ([8]; Preemergence, 500 g ai/ha): 85
- Plant response rating ([9]; Postemergence, 31 g ai/ha): 30
- Plant response rating ([9]; Postemergence, 62 g ai/ha): 40
- Plant response rating ([9]; Postemergence, 125 g ai/ha): 70
- Plant response rating ([9]; Postemergence, 250 g ai/ha): 75
- Plant response rating ([9]; Postemergence, 500 g ai/ha): 100
- Plant response rating ([9]; Preemergence, 31 g ai/ha): 100
- Plant response rating ([9]; Preemergence, 62 g ai/ha): 100
- Plant response rating ([9]; Preemergence, 125 g ai/ha): 100
- Plant response rating ([9]; Preemergence, 250 g ai/ha): 100
- Plant response rating ([9]; Preemergence, 500 g ai/ha): 100
- Plant response rating ([10]; Postemergence, 62 g ai/ha): 25
- Plant response rating ([10]; Postemergence, 250 g ai/ha): 80
- Plant response rating ([10]; Postemergence, 500 g ai/ha): 100
- Plant response rating ([10]; Preemergence, 62 g ai/ha): 0
- Plant response rating ([10]; Preemergence, 125 g ai/ha): 100
- Plant response rating ([10]; Preemergence, 250 g ai/ha): 100
- Plant response rating ([10]; Preemergence, 500 g ai/ha): 100
- Plant response rating ([11]; Postemergence, 31 g ai/ha): 100
- Plant response rating ([11]; Postemergence, 62 g ai/ha): 100
- Plant response rating ([11]; Postemergence, 125 g ai/ha): 100
- Plant response rating ([11]; Postemergence, 250 g ai/ha): 100
- Plant response rating ([11]; Postemergence, 500 g ai/ha): 100
- Plant response rating ([11]; Preemergence, 31 g ai/ha): 100
- Plant response rating ([11]; Preemergence, 62 g ai/ha): 100
- Plant response rating ([11]; Preemergence, 125 g ai/ha): 100
- Plant response rating ([11]; Preemergence, 250 g ai/ha): 100
- Plant response rating ([11]; Preemergence, 500 g ai/ha): 100
